According to patent US20260226470A1, “HEPATITIS B COMBINATION THERAPIES” (Aligos Therapeutics, Inc., priority 2023, published 2026):
Oligonucleotides are written 5' to 3', each unit as a sugar letter and its base; * is a phosphorothioate linkage, no mark a phosphodiester; rarer units and linkages stand in square brackets, end groups in braces. Plain capitals give the bases only. m = 2'-O-methyl; f = 2'-fluoro

Assays:
[1] = tested on: HBV; test: siRNA treatment followed by CAM add-on, in vivo in mice, Example 3; conditions: FIGS. 13A-13B, 16A-16B; CAM 30 mpk BID day 63-98; siRNA-2 10 mpk SC QW day 0-98
Experimental: In the following example, initial treatment with an siRNA, followed by CAM add-on, was tested in vivo in mice.
The study design is described below in Table 9.
QW dosing of siRNA-2 was continued until the end of the study (day 98). HBV DNA, HBsAg, and HBeAg were measured weekly through day 98.

[2] = tested on: adeno-associated virus-hepatitis B virus (AAV-HBV) mice; test: In vivo compound efficacy in AAV-HBV mice, Example 1 (Compound 1 and siRNA-1); design: species or system Mouse: C57BL/6; conditions: plasma, follow-up to Day 189
Experimental: In vivo compound efficacy was evaluated in adeno-associated virus-hepatitis B virus (AAV-H-BV) mice. Materials and methods are presented below in tables 1-4. Table F describes the nucleic acid sequences used for siRNA-1, an siRNA. The sequences are described using modified nucleotide annotations found in Table B.
Live Phase Parameters: Based on plasma viral markers levels and body weight, 20 mice were selected and randomized into five groups for treatment. Checks were made for dead and/or moribund animals daily. Overt changes were recorded. Body weight was measured twice weekly during Day 0-97, and once weekly during Day 98-189.
Vehicle (Group 01) and Compound 1 at 55 mg/kg/dose (Groups 02, 04 and 05) were administered by oral gavage twice daily during Day 0-97. siRNA-1 at 5 mg/kg/dose was injected subcutaneously on Days 0, 14, 42 and 70 for Groups 03 and 04, and on Days 70, 84, and 102 for Group 05.
Plasma samples of 50 μL per mouse were prepared once weekly prior to dosing during Day 0-189. The samples were used for quantitative detections of HBsAg, HBeAg, and HBV DNA. Mice were sacrificed on Day 189.

Compound | reduction of HBV DNA [1] | HBsAg effect after end of treatment (sustained or rebound) ([2]; FIGS. 3A-3B) | HBeAg effect after end of treatment (sustained or rebound) ([2]; FIGS. 4A-4B)
C=C[C@H](C)Nc1nc2c(c(=O)n1-c1ccc(C(=O)NC)cc1)C[C@@H](C)N(C(=O)c1ccc(Br)c(C(F)(F)F)c1)C2 [Compound 2, 4-((R)-7-(4-bromo-3-(trifluoromethyl)benzoyl)-2-(((S)-but-3-en-2-yl)amino)-6-methyl-4-oxo-5,6,7,8-tetrahydropyrido[3,4-d]pyrimidin-3(4H)-yl)-N-methylbenzamide] | good reduction of HBV DNA |  | 
siRNA-1: siRNA with SEQ ID NO: 2 (Sense) and SEQ ID NO: 3 (Antisense), modified nucleotides per Table B (sense mC*mC*mGmUfGmUfGfCfAmCmUmUmCmGmCmUmUmCmA; antisense mU*fG*mAmAfGmCmGfAmAmGmUmGmCfAmCmAfCmGmG*mU*mC) |  | rebound is observed | rebound is observed
